Read-outs that look alike come from different tables or passages of the source.
Target: T1, human FXR (NR1H4) (Homo sapiens, UniProt Q96RI1)
T1 sequence (Q96RI1 1-486): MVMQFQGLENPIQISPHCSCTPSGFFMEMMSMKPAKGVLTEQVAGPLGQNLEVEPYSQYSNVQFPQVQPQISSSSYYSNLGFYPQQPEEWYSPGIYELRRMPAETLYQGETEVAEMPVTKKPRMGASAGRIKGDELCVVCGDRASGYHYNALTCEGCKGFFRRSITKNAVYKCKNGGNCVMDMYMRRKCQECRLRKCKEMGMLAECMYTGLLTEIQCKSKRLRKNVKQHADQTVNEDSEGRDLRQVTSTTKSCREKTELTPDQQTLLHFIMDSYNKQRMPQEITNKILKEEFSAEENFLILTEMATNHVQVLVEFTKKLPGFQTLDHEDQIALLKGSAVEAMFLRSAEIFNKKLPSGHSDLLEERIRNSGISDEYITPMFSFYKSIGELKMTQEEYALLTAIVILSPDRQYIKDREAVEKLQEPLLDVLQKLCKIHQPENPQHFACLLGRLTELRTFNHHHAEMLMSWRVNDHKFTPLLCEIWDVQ
Assay: Human FXR (NR1H4) Assay: Gal4 promoter driven luciferase reporter transactivation in CHO cells (Indigo Bioscience kit IB00601)
Type: cell-based
Details: for Emax: CHO, read-out: Efficacy (%); for EC50: Human FXR (NR1H4) reporter assay in CHO cells
Description: Human FXR (NR1H4) Assay Determination of a ligand mediated Gal4 promoter driven transactivation to quantify ligand binding mediated activation of FXR. FXR Reporter Assay kit purchased from Indigo Bioscience (Catalogue number: IB00601) to determine the potency and efficacy of compounds that can induce FXR activation. The principle application of this reporter assay system is to quantify functional activity of human FXR. The assay utilizes non-human mammalian cells, CHO (Chinese hamster ovary) cells engineered to express human NR1H4 protein (referred to as FXR). Reporter cells also incorporate the cDNA encoding beetle luciferase which catalyzes the substrates and yields photon emission. Luminescence intensity of the reaction is quantified using a plate-reading luminometer, Envision. Reporter Cells include the luciferase reporter gene functionally linked to an FXR responsive promoter. Thus, quantifying changes in luciferase expression in the treated reporter cells provides a sensitive surrogate measure of the changes in FXR activity. […] The assay is according to the manufacturer's instructions. […] Retrieve Reporter Cells from −80° C. storage. Perform a rapid thaw of the frozen cells by transferring a 10 ml volume of 37° C. cell recovery medium into the tube of frozen cells. […] Retrieve the tube of Reporter Cell Suspension from the water bath. […] Dispense 90 μl of cell suspension into each well of the 96-well Assay Plate. Transfer the plate into 37° C. incubator, allowing the cells adherent to the bottom of the well. Dilute compounds in Dilution Plate (DP), and administrate to cells at Assay Plate (AP). […] Cells were incubated for additional 22 hours before luciferase activities were measured. Thirty minutes before intending to quantify FXR activity, remove Detection Substrate and Detection Buffer from the refrigerator and place them in a low-light area so that they may equilibrate to room temperature. Remove the plate's lid and discard all media contents by ejecting it into an appropriate waste container. Gently tap the inverted plate onto a clean absorbent paper towel to remove residual droplets. Cells will remain tightly adhered to well bottoms. Add 100 μl of luciferase detection reagent to each well of the assay plate. Allow the assay plate to rest at room temperature for at least 5 minutes following the addition of LDR. Set the instrument (Envision) to perform a single 5 second “plate shake” prior to reading the first assay well. Read time may be 0.5 second (500 mSec) per well.

[1] = efficacy normalized to CDCA set as 100%

| SMILES | Emax [1] | EC50 (potency range, read-out: EC50) | Emax | EC50 (EC50, potency range) |
| --- | --- | --- | --- | --- |
| CCOc1cc(C(=O)O)ccc1NC(=O)N1C2CCC1CC(NCc1c(-c3ccccc3OC(F)(F)F)noc1C1CC1)C2 (centres unmarked) [Example 832] | 50% | 10 to 100 nM |  |  |
| COC(=O)c1ccc(F)c(NC(=O)N2C3CCC2CC(OCc2c(-c4ccccc4OC(F)(F)F)noc2C2CC2)C3)c1 (centres unmarked) [Example 747] | 145% | 100 to 1000 nM |  |  |
| O=C(Nc1ccc(C(F)F)cc1)N1C2CCC1CC(OCc1c(-c3c(Cl)cccc3Cl)noc1C1CC1)C2 (centres unmarked) [Example 189] |  | 10 to 100 nM |  |  |
| CC1(S(=O)(=O)NC(=O)c2ccc(NC(=O)N3C4CCC3CC(OCc3c(-c5c(Cl)cccc5Cl)noc3C3CC3)C4)c(F)c2)CC1 (centres unmarked) [Example 693] | 203% | 100 to 1000 nM |  |  |
| CCOC(=O)c1ccc2c(c1)CCCN2C(=O)N1C2CCC1CC(OCc1c(-c3ccccc3OC(F)(F)F)noc1C1CC1)C2 (centres unmarked) [Example 593] |  | > 1000 nM | 40% |  |
| O=C(Nc1ccc2ncccc2c1)N1C2CCC1CC(OCc1c(-c3c(Cl)cccc3Cl)noc1C1CC1)C2 (centres unmarked) [Example 22] |  | < 10 nM |  |  |
| COC(=O)c1ccc(NC(=O)N2C3CCC2CC(OCc2c(-c4c(Cl)cccc4Cl)noc2C2CC2)C3)cc1-c1ccc(OC)nc1 (centres unmarked) [Example 784] | 102% | < 10 nM |  |  |
| O=C(Nc1cccc(-c2ccccc2)c1)N1C2CCC1CC(OCc1c(-c3c(Cl)cccc3Cl)noc1C1CC1)C2 (centres unmarked) [Example 729] | 148% | < 10 nM |  |  |
| O=C(NS(=O)(=O)c1ccccc1)c1ccc(NC(=O)N2C3CCC2CC(OCc2c(-c4ccccc4OC(F)(F)F)noc2C2CC2)C3)cc1 (centres unmarked) [Example 756] | 205% | 100 to 1000 nM |  |  |
| COC(=O)c1ccc(NC(=O)N2C3CCC2CC(OCc2c(-c4c(Cl)cccc4Cl)noc2C2CC2)C3)c(C#N)c1 (centres unmarked) [Example 802] | 28% | 100 to 1000 nM |  |  |
| CCOC(=O)c1cnc2ccc(NC(=O)N3C4CCC3CC(OCc3c(-c5c(Cl)cccc5Cl)noc3C3CC3)C4)cc2c1 (centres unmarked) [Example 775] | 82% | < 10 nM |  |  |
| N#Cc1cncc(NC(=O)N2C3CCC2CC(OCc2c(-c4c(Cl)cccc4Cl)noc2C2CC2)C3)c1 (centres unmarked) [Example 703] | 170% | < 10 nM |  |  |
| O=C(O)c1ccc2c(c1)CCN2C(=O)N1C2CCC1CC(OCc1c(-c3ccccc3OC(F)(F)F)noc1C1CC1)C2 (centres unmarked) [Example 592] |  | > 1000 nM | 227% |  |
| O=C(O)c1ccccc1NC(=O)N1C2CCC1CC(OCc1c(-c3ccccc3OC(F)(F)F)noc1C1CC1)C2 (centres unmarked) [Example 744] | 165% | > 1000 nM |  |  |
| CCOC(=O)c1cccc(NC(=O)N2C3CCC2CC(NCc2c(-c4c(Cl)cccc4Cl)noc2C2CC2)C3)c1 (centres unmarked) [Example 827] | 110% | < 10 nM |  |  |
| CC(C)(C)c1ccc(S(=O)(=O)NC(=O)c2cccc(NC(=O)N3C4CCC3CC(OCc3c(-c5ccccc5OC(F)(F)F)noc3C3CC3)C4)c2)cc1 (centres unmarked) [Example 263] |  | > 1000 nM |  |  |
| COC(=O)c1ccc(NC(=O)N2C3CCC2CC(OCc2c(-c4ccccc4OC(F)(F)F)noc2C2CC2)C3)c(OC)c1 (centres unmarked) [Example 236] |  | 10 to 100 nM |  |  |
| O=C(Nc1ccccc1F)N1C2CCC1CC(OCc1c(-c3c(Cl)cccc3Cl)noc1C1CC1)C2 (centres unmarked) [Example 7] |  | 10 to 100 nM |  |  |
| COC(=O)c1ccc(NC(=O)N2C3CCC2CC(OCc2c(-c4c(Cl)cccc4Cl)noc2C2CC2)C3)cc1F (centres unmarked) [Example 196] |  | < 10 nM |  |  |
| O=C(O)c1c(F)cc(NC(=O)N2C3CCC2CC(OCc2c(-c4c(Cl)cccc4Cl)noc2C2CC2)C3)cc1F (centres unmarked) [Example 199] |  | 100 to 1000 nM |  |  |

| SMILES | Emax [1] | EC50 (potency range, read-out: EC50) | Emax | EC50 (EC50, potency range) |
| --- | --- | --- | --- | --- |
| O=C(Nc1ccc(-c2ccccc2)cc1)N1C2CCC1CC(OCc1c(-c3c(Cl)cccc3Cl)noc1C1CC1)C2 (centres unmarked) [Example 728] | 141% | 10 to 100 nM |  |  |
| CCOC(=O)c1cccnc1NC(=O)N1C2CCC1CC(OCc1c(-c3ccccc3OC(F)(F)F)noc1C1CC1)C2 (centres unmarked) [Example 767] | 136% | 100 to 1000 nM |  |  |
| O=C(Nc1ccc(-c2nnn[nH]2)cc1)N1C2CCC1CC(OCc1c(-c3c(Cl)cccc3Cl)noc1C1CC1)C2 (centres unmarked) [Example 701] | 306% | 100 to 1000 nM |  |  |
| N#Cc1cccc(NC(=O)N2C3CCC2CC(OCc2c(-c4c(Cl)cccc4Cl)noc2C2CC2)C3)c1 (centres unmarked) [Example 3] |  | < 10 nM |  |  |
| O=C(Nc1cccc(-c2ccccc2)c1)N1C2CCC1CC(NCc1c(-c3c(Cl)cccc3Cl)noc1C1CC1)C2 (centres unmarked) [Example 773] |  |  | 135% | 10 to 100 nM |
| O=C(O)c1ccc(NC(=O)N2C3CCC2CC(OCc2c(-c4ccccc4C(F)(F)F)noc2C2CC2)C3)c(F)c1 (centres unmarked) [Example 807] | 42% | 10 to 100 nM |  |  |
| COC(=O)c1cc(F)c(NC(=O)N2C3CCC2CC(OCc2c(-c4c(Cl)cccc4Cl)noc2C2CC2)C3)cc1-c1ccccc1 (centres unmarked) [Example 794] | 80% | < 10 nM |  |  |
| O=C(O)c1ccc2c(c1)CCCN2C(=O)N1C2CCC1CC(OCc1c(-c3ccccc3OC(F)(F)F)noc1C1CC1)C2 (centres unmarked) [Example 594] |  | 100 to 1000 nM | 49% |  |
| COC(=O)c1cc(NC(=O)N2C3CCC2CC(OCc2c(-c4c(Cl)cccc4Cl)noc2C2CC2)C3)cc(-c2cccnc2)c1 (centres unmarked) [Example 726] | 81% | < 10 nM |  |  |
| O=C(O)c1cccc(NC(=O)N2C3CCC2CC(OCc2c(-c4ccccc4OC(F)(F)F)noc2C2CC2)C3)c1 (centres unmarked) [Example 229] |  | 100 to 1000 nM |  |  |
| O=C(O)c1ccc(NC(=O)N2C3CCC2CC(OCc2c(-c4c(F)cccc4F)noc2C2CC2)C3)c(C(F)(F)F)c1 (centres unmarked) [Example 818] | 25% | 10 to 100 nM |  |  |
| O=C(Nc1ccc(F)cc1)N1C2CCC1CC(OCc1c(-c3c(Cl)cccc3Cl)noc1C1CC1)C2 (centres unmarked) [Example 698] | 182% | 10 to 100 nM |  |  |
| O=C(O)c1cccnc1NC(=O)N1C2CCC1CC(OCc1c(-c3ccccc3OC(F)(F)F)noc1C1CC1)C2 (centres unmarked) [Example 772] | 31% | > 1000 nM |  |  |
| O=C(Nc1ccccc1)N1C2CCC1CC(OCc1c(-c3c(Cl)cccc3Cl)noc1C1CC1)C2 (centres unmarked) [Example 696] | 246% | < 10 nM |  |  |
| O=C(c1ccc(-c2cccc(NC(=O)N3C4CCC3CC(OCc3c(-c5c(Cl)cccc5Cl)noc3C3CC3)C4)c2)cc1)N1CCOCC1 (centres unmarked) [Example 707] | 220% | 10 to 100 nM |  |  |
| COC(=O)c1ccc(NC(=O)N2C3CCC2CC(OCc2c(-c4c(Cl)cccc4Cl)noc2C2CC2)C3)c(OC(F)(F)F)c1 (centres unmarked) [Example 716] | 43% | 100 to 1000 nM |  |  |
| O=C(Nc1cccnc1)N1C2CCC1CC(OCc1c(-c3c(Cl)cccc3Cl)noc1C1CC1)C2 (centres unmarked) [Example 15] |  | < 10 nM |  |  |
| COC(=O)c1ccc2c(c1)CN(C(=O)N1C3CCC1CC(OCc1c(-c4ccccc4OC(F)(F)F)noc1C1CC1)C3)CC2 (centres unmarked) [Example 833] | 80% | > 1000 nM |  |  |
| CC(C)(C)c1cccc(NC(=O)N2C3CCC2CC(OCc2c(-c4c(Cl)cccc4Cl)noc2C2CC2)C3)c1 (centres unmarked) [Example 4] |  | 10 to 100 nM |  |  |
| CN(C)S(=O)(=O)NC(=O)c1cccc(NC(=O)N2C3CCC2CC(OCc2c(-c4ccccc4OC(F)(F)F)noc2C2CC2)C3)c1 (centres unmarked) [Example 265] |  | 100 to 1000 nM |  |  |

From patent US10597391B2, “Urea-containing isoxazole derivatives as FXR agonists and methods of use thereof” (Enanta Pharmaceuticals, Inc., priority 2016, dated 2020)
